Reference: article PMC8398255, “Synthesis of 3,5-Bis(trifluoromethyl)phenyl-Substituted Pyrazole Derivatives as Potent Growth Inhibitors of Drug-Resistant Bacteria” (Molecules, 2021)
Converted amounts (≈) assume the structure as drawn. Where two headings read alike, the source gives them in different places.

Legend:
[1] = tested on: Bacillus subtilis ATCC 6623 (Bs); test: MIC, microdilution (CLSI); type: cell-based; conditions: ATCC6623
Protocol: (§1) Compounds were dissolved in dimethyl sulfoxide (DMSO) to achieve a starting concentration of 32 µg/mL as described by us previously. Compounds were further diluted two-fold across the 96-well honeycomb plate columns in cation adjusted Mueller Hinton broth (CAMHB), and bacterial culture was added. Plates were incubated for 18–20 h at 35 ℃ before determining the minimum concentrations at which wells had no visible turbidity to the naked eye. The MIC values were determined from at least a duplicate result obtained from three independent experiments using fresh bacterial cultures on different days.

[2] = tested on: E. faecalis ATCC 29212 (Ef12); test: MIC, microdilution (CLSI); type: cell-based; conditions: Enterococcus faecalis, ATCC29212
Protocol: as §1

[3] = tested on: E. faecalis ATCC 51299 (Ef99); test: MIC, microdilution (CLSI); type: cell-based; conditions: Enterococcus faecalis, ATCC 51299 / VRE
Protocol: as §1

[4] = tested on: E. faecium ATCC 700221 (Ef21); test: MIC, microdilution (CLSI); type: cell-based; conditions: Enterococcus faecium, ATCC 700221 / VRE
Protocol: as §1

[5] = tested on: S. aureus ATCC 25923 (Sa23); test: MIC, microdilution (CLSI); type: cell-based; conditions: Staphylococcus aureus, ATCC25923
Protocol: as §1

[6] = tested on: S. aureus ATCC 33591 (Sa91); test: MIC, microdilution (CLSI); type: cell-based; conditions: Staphylococcus aureus, ATCC33591
Protocol: as §1

[7] = tested on: S. aureus ATCC 33592 (Sa92); test: MIC, microdilution (CLSI); type: cell-based; conditions: Staphylococcus aureus, ATCC33592
Protocol: as §1

[8] = tested on: S. aureus ATCC 700699 (Sa99); test: MIC, microdilution (CLSI); type: cell-based; conditions: Staphylococcus aureus, ATCC700699
Protocol: as §1

[9] = tested on: S. aureus BAA-2312 (Sa12); test: MIC, microdilution (CLSI); type: cell-based; conditions: Staphylococcus aureus, BAA2312
Protocol: as §1

[10] = tested on: S. epidermidis ATCC 700296 (Se); test: MIC, microdilution (CLSI); type: cell-based; conditions: Staphylococcus epidermidis, ATCC700296
Protocol: as §1

[11] = tested on: E. faecalis biofilms (Efs12); test: Biofilm eradication (MBEC), Calgary Biofilm Device; type: cell-based
Protocol: (§2) Minimum biofilm eradication concentration (MBEC) was determined using a Calgary device using the protocol reported elsewhere with some modifications. The Calgary device is a 96-well plate with a lid containing pegs to establish biofilms. Bacteria from an overnight plate culture were suspended to a 0.5 McFarland turbidity, then diluted 1:100 in a CAMHB containing 1% glucose which was inoculated in the 96 wells (150 μL in each well) and incubated at 35 °C for 24 h to establish biofilm on the pegs. The lid was then removed, washed with PBS in a fresh 96 well plate, then transferred to another 96-well plate containing 2-fold serial dilutions of the test compounds dissolved in PBS (150 μL total volume in each well). This plate was called the “challenge plate”. The challenge plate was incubated for an additional 24 h, and the lid was transferred to the next 96-well plate containing fresh CAMHB media with 1% glucose (180 μL) and further incubated for 24 h. […] All the compounds were tested in a minimum of three independent experiments.

[12] = Cytotoxicity assay (resazurin); type: cell-based; conditions: human, HEK-293 cells, 24 h treatment, n = 3
Protocol: The human embryonic kidney cell line (HEK-293) was used to assess the cytotoxicity of the antibiotics as described by us previously. HEK-293 cells were cultured in Dulbecco’s modified eagle’s medium (DMEM) containing 10% Fetal Bovine Serum (FBS) and incubated at 37 °C in the presence of 5% carbon dioxide. HEK-293 cells were cultured in 96-well black plates with 6000 cells per well for the first 24 h followed by treatment with a range of concentrations of antibiotics dissolved in DMSO for the next 24 h. After the second period of incubation, resazurin (40 µL of 0.15 mg/mL) was added to each well and incubated for an additional 4 h. Reduction of resazurin was measured fluorometrically with excitation wavelength at 560 nm and emission at 590 nm using BioTek™ Cytation™5 plate reader. Percentage viability of HEK cells for each range of concentrations was calculated, taking the fluorescence value of the wells treated with DMSO as a reference, using Microsoft® Excel® for Office 365 MSO. IC50 values were computed using the calculated percentage viability values through data processing in Graphpad Prism 7 for Windows, Version 7.04.

[13] = tested on: S. aureus ATCC 700699 persisters; test: Persister viability assay; type: cell-based, Staphylococcus aureus; conditions: 32× MIC, 4 h; for activity against persisters: S. aureus ATCC 700699 persisters
Protocol: (§3) The persister assay was performed following the methodology described previously. Briefly, for persister viability assays, S. aureus ATCC 700699 strain (MRSA) was grown to stationary phase in CAMHB medium by shaking at 200 rpm in a shaking incubator for 24 h at 35 °C. […] After incubation, 400 µL aliquot was washed, serially diluted in PBS, and plated in blood agar plate for viable colony count.

[14] = tested on: MRSA persisters (S. aureus ATCC 700699); test: Persister Time Kill Assay; type: cell-based, Staphylococcus aureus
Protocol: as §3
Likewise, for persister time-kill assays, the persister cells were treated at varied concentrations and incubated with shaking. At the start and every 2 h until 8 h, 400 µL samples were washed, serially diluted, and plated on blood agar using the 6 × 6 drop plate method. Plates were incubated for 18–20 h at 35 °C, before the colonies were counted to calculate CFU/mL. All the treatments were performed in triplicates.

[15] = tested on: S. aureus and E. faecalis biofilms; test: Biofilm eradication, S. aureus and E. faecalis; type: cell-based
Protocol: as §2

[16] = tested on: S. aureus biofilms (Sa23); test: Biofilm eradication (MBEC), Calgary Biofilm Device; type: cell-based, Staphylococcus aureus
Protocol: as §2

[17] = tested on: MRSA (S. aureus ATCC 700699); test: Time Kill Assay; type: cell-based, Staphylococcus aureus; conditions: 4× MIC, positive controls
[18] = Bs, Bacillus subtilis ATCC 6623, n = 3, read-out: MIC
[19] = Ef12, antibiotic susceptible E. faecalis ATCC 29212, n = 3, read-out: MIC
[20] = Ef99, vancomycin-resistant (VRE) E. faecalis ATCC 51299, n = 3, read-out: MIC
[21] = Ef21, vancomycin-resistant (VRE) E. faecium ATCC 700221, n = 3, read-out: MIC
[22] = Sa23, antibiotic susceptible S. aureus ATCC 25923, n = 3, read-out: MIC
[23] = Sa91, methicillin-resistant S. aureus ATCC 33591, n = 3, read-out: MIC
[24] = Sa92, methicillin-resistant S. aureus ATCC 33592, n = 3, read-out: MIC
[25] = Sa99, methicillin-resistant S. aureus ATCC 700699, n = 3, read-out: MIC
[26] = Sa12, methicillin-resistant S. aureus BAA-2312, n = 3, read-out: MIC
[27] = Se, S. epidermidis ATCC 700296, n = 3, read-out: MIC

O=C(O)c1ccc(-n2cc(CNc3ccc(Br)c(Cl)c3F)c(-c3cc(C(F)(F)F)cc(C(F)(F)F)c3)n2)cc1 [Compound 29, 4-[3-[3,5-Bis(trifluoromethyl)phenyl]-4-[(4-bromo-3-chloro-2-fluoro-anilino)methyl]pyrazol-1-yl] benzoic acid]
MIC [1, 18]: 2 µg/mL (≈ 3.14 µM)
MIC [2, 19]: 2 µg/mL (≈ 3.14 µM)
MIC [3, 20]: 2 µg/mL (≈ 3.14 µM)
MIC [4, 21]: 1 µg/mL (≈ 1.57 µM)
MIC [5, 22]: 2 µg/mL (≈ 3.14 µM)
MIC [6, 23]: 1 µg/mL (≈ 1.57 µM)
MIC [7, 24]: 1 µg/mL (≈ 1.57 µM)
MIC [8, 25]: 2 µg/mL (≈ 3.14 µM)
MIC [9, 26]: 1 µg/mL (≈ 1.57 µM)
MIC [10, 27]: 2 µg/mL (≈ 3.14 µM)
MBEC [11]: 2 µg/mL
IC50 at 24 h [12]: 7 to 8 µg/mL (≈ 11 to 12.6 µM)
reduction of the population of persisters compared to the positive controls [13]: 4 log values
activity against persisters [13]: very effective
decrease of persister cells ([14]; 2× MIC, 8 h): ~2 log value
persisters eradicated ([14]; within 8 h at all the 4× MIC, 8× MIC and 16× MIC concentrations): more than 3 log values
MBEC values [15]: ≥ 1 µg/mL

CCCCCCCCCC(=O)N[C@@H](Cc1c[nH]c2ccccc12)C(=O)N[C@H](CC(N)=O)C(=O)N[C@@H](CC(=O)O)C(=O)N[C@@H]1C(=O)NCC(=O)N[C@@H](CCCN)C(=O)N[C@@H](CC(=O)O)C(=O)N[C@H](C)C(=O)N[C@@H](CC(=O)O)C(=O)NCC(=O)N[C@H](CO)C(=O)N[C@@H]([C@H](C)CC(=O)O)C(=O)N[C@@H](CC(=O)c2ccccc2N)C(=O)O[C@@H]1C [D, Daptomycin, reference compound]
MIC [1, 18]: 2 µg/mL (≈ 1.23 µM)
MIC [2, 19]: 16 µg/mL (≈ 9.87 µM)
MIC [3, 20]: 16 µg/mL (≈ 9.87 µM)
MIC [4, 21]: 16 µg/mL (≈ 9.87 µM)
MIC [5, 22]: 2 µg/mL (≈ 1.23 µM)
MIC [6, 23]: 2 µg/mL (≈ 1.23 µM)
MIC [7, 24]: 2 µg/mL (≈ 1.23 µM)
MIC [8, 25]: 8 µg/mL (≈ 4.94 µM)
MIC [9, 26]: 2 µg/mL (≈ 1.23 µM)
MIC [10, 27]: 2 µg/mL (≈ 1.23 µM)
MBEC [16]: >32 µg/mL
MBEC [11]: >32 µg/mL
time to eliminate >99.9% CFUs [17]: 6 h
activity against persisters [13]: failed to demonstrate persister kill activity

CN[C@H](CC(C)C)C(=O)N[C@H]1C(=O)N[C@@H](CC(N)=O)C(=O)N[C@H]2C(=O)N[C@H]3C(=O)N[C@H](C(=O)N[C@H](C(=O)O)c4cc(O)cc(O)c4-c4cc3ccc4O)[C@H](O)c3ccc(c(Cl)c3)Oc3cc2cc(c3O[C@@H]2O[C@H](CO)[C@@H](O)[C@H](O)[C@H]2O[C@H]2C[C@](C)(N)[C@H](O)[C@H](C)O2)Oc2ccc(cc2Cl)[C@H]1O [V, Vancomycin, reference compound]
MIC ([1]; Bacillus subtilis): 0.25 µg/mL (≈ 0.173 µM)
MIC [2]: 2 µg/mL (≈ 1.38 µM)
MIC [3]: > 32 µg/mL
MIC [4]: > 32 µg/mL
MIC [5]: 1 µg/mL (≈ 0.69 µM)
MIC [6]: 2 µg/mL (≈ 1.38 µM)
MIC [7]: 2 µg/mL (≈ 1.38 µM)
MIC [8]: 4 µg/mL (≈ 2.76 µM)
MIC [9]: 0.5 µg/mL (≈ 0.345 µM)
MIC [10]: 2 µg/mL (≈ 1.38 µM)
MBEC [16]: >32 µg/mL
MBEC [11]: >32 µg/mL
time to eliminate >99.9% CFUs [17]: 8 h
activity against persisters [13]: failed to demonstrate persister kill activity
